# Test results published in patent US11739074B2, “Ras inhibitors” (Revolution Medicines, Inc., priority 2019, dated 2023).
# pEC50, pIC50: −log10 of the molar value. Like-named read-outs stand apart in the source and are kept apart here.
# Assays:
# KRAS Q61H = KRAS Q61H (Homo sapiens, UniProt P01116+P62937, Q61H); experiment: Ras-Raf disruption/FRET/MOA assay, KRAS Q61H; format: biochemical; conditions: KRAS Q61H; read-out: KRAS Q61H FRET data IC50
# Excerpt: (§1) Disruption of B-Raf Ras-Binding Domain (BRAF^RBD) Interaction with K-Ras by Compounds of the Invention (Also Called a FRET Assay or an MOA Assay)
# (§2) Note—The following protocol describes a procedure for monitoring disruption of K-Ras G12C (GMP-PNP) binding to BRAF^RBD by a compound of the invention. This protocol may also be executed substituting other Ras proteins or nucleotides, such as K-Ras G12D and K-Ras G13D.
# (§3) The purpose of this biochemical assay was to measure the ability of test compounds to facilitate ternary complex formation between a nucleotide-loaded K-Ras isoform and Cyclophilin A; the resulting ternary complex disrupts binding to a BRAF^RBD construct, inhibiting K-Ras signaling through a RAF effector.
# (§4) In assay buffer containing 25 mM HEPES pH 7.3, 0.002% Tween20, 0.1% BSA, 100 mM NaCl and 5 mM MgCl2, tagless Cyclophilin A, His6-K-Ras-GMPPNP, and GST-BRAF^RBD were combined in a 384-well assay plate at final concentrations of 25 μM, 12.5 nM, and 50 nM, respectively. Compound was present in plate wells as a 10-point 3-fold dilution series starting at a final concentration of 30 μM. After incubation at 25° C. for 3 hours, a mixture of anti-His Eu-W1024 and anti-GST allophycocyanin was then added to assay sample wells at final concentrations of 10 nM and 50 nM, respectively, and the reaction incubated for an additional 1.5 hours. […] Compounds that facilitate disruption of a K-Ras:RAF complex were identified as those eliciting a decrease in the TR-FRET ratio relative to DMSO control wells.
# KRAS WT = KRAS WT (Homo sapiens, UniProt P01116+P62937); experiment: Ras-Raf disruption/FRET/MOA assay, KRAS WT; format: biochemical; conditions: disruption of BRAF RBD binding, with Cyclophilin A; read-out: KRAS WT FRET IC50
# KRAS WT, sequence (P01116 1-169 isoform P01116-2 limits assumed): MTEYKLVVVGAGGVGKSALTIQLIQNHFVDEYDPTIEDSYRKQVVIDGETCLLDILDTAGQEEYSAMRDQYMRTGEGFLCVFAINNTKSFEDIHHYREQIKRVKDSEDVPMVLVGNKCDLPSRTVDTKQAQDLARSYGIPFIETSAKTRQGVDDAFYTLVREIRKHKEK
# KRAS WT, sequence (P62937 whole entry): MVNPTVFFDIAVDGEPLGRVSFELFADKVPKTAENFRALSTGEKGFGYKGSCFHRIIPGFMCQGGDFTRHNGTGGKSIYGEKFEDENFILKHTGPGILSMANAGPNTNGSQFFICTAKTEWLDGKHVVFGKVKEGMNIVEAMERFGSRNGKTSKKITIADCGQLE
# Summary of the method: (§5)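 His6-KRAS-GMPPNP (12.5 nM) was combined with tagless Cyclophilin A (25 μM) and GST-BRAF^RBD (50 nM) in pH 7.3 HEPES buffer with NaCl, MgCl2, Tween20 and BSA. Compound was tested as a 10-point 3-fold series from 30 μM final, 3 h at 25° C. Disruption was read as a drop in TR-FRET ratio versus DMSO.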
# KRAS G12S = KRAS G12S (Homo sapiens, UniProt P01116+P62937, G12S); experiment: Ras-Raf disruption/FRET/MOA assay, KRAS G12S; format: biochemical; conditions: disruption of BRAF RBD binding, with Cyclophilin A; read-out: KRAS G12S FRET IC50
# KRAS G12S, sequence (P01116 1-169 isoform P01116-2 G12S limits assumed): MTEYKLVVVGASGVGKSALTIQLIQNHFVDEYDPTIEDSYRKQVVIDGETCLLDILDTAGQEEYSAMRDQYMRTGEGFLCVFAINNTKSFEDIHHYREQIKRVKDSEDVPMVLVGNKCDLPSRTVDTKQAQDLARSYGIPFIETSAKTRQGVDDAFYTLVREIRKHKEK
# KRAS G12S, sequence (P62937 whole entry): as the sequence (P62937 whole entry) above
# Summary of the method: as §5
# NRAS WT = target: T1, NRAS WT (Homo sapiens, UniProt P01111+P62937); experiment: Ras-Raf disruption/FRET/MOA assay, NRAS WT; format: biochemical; conditions: NRAS WT; read-out: NRAS WT FRET data IC50
# T1 construct: His6
# T1 sequence (P01111 whole entry): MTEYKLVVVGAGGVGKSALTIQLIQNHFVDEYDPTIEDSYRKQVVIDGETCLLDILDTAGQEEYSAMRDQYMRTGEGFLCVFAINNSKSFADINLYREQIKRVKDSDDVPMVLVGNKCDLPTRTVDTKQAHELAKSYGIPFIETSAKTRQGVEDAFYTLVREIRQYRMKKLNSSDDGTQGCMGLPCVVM
# T1 sequence (P62937 whole entry): as the sequence (P62937 whole entry) above
# Excerpt: as §1, §2, §3, §4
# KRAS G12D = KRAS G12D (Homo sapiens, UniProt P01116+P62937, G12D); experiment: Ras-Raf disruption/FRET/MOA assay, KRAS G12D; format: biochemical; conditions: disruption of BRAF RBD binding, with Cyclophilin A; read-out: KRAS G12D FRET IC50
# KRAS G12D, sequence (P01116 1-169 isoform P01116-2 G12D limits assumed): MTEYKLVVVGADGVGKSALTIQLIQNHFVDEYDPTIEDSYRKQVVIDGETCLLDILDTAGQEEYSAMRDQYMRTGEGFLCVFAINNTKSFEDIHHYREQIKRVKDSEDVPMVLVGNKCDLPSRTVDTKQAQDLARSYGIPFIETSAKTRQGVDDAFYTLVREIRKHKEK
# KRAS G12D, sequence (P62937 whole entry): as the sequence (P62937 whole entry) above
# Summary of the method: as §5
# NRAS Q61R = target: T2, NRAS Q61R (Homo sapiens, UniProt P01111+P62937, Q61R); experiment: Ras-Raf disruption/FRET/MOA assay, NRAS Q61R; format: biochemical; conditions: NRAS Q61R; read-out: NRAS Q61R FRET data IC50
# T2 construct: His6
# T2 sequence (P01111 whole entry Q61R): as the sequence (P01111 whole entry) above, with Q61R counted along it
# T2 sequence (P62937 whole entry): as the sequence (P62937 whole entry) above
# Excerpt: as §1, §2, §3, §4
# KRAS G12C = KRAS G12C (Homo sapiens, UniProt P01116+P62937, G12C); experiment: Ras-Raf disruption/FRET/MOA assay, KRAS G12C; format: biochemical; conditions: disruption of BRAF RBD binding, with Cyclophilin A; read-out: KRAS G12C FRET IC50
# KRAS G12C, sequence (P01116 1-169 isoform P01116-2 G12C limits assumed): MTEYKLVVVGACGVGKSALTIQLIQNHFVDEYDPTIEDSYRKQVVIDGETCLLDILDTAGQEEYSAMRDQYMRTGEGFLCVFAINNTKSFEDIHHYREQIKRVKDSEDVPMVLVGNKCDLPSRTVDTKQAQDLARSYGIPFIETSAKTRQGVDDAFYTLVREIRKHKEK
# KRAS G12C, sequence (P62937 whole entry): as the sequence (P62937 whole entry) above
# Summary of the method: as §5
# KRAS G13D = KRAS G13D (Homo sapiens, UniProt P01116+P62937, G13D); experiment: Ras-Raf disruption/FRET/MOA assay, KRAS G13D; format: biochemical; conditions: disruption of BRAF RBD binding, with Cyclophilin A; read-out: KRAS G13D FRET IC50
# KRAS G13D, sequence (P01116 1-169 isoform P01116-2 G13D limits assumed): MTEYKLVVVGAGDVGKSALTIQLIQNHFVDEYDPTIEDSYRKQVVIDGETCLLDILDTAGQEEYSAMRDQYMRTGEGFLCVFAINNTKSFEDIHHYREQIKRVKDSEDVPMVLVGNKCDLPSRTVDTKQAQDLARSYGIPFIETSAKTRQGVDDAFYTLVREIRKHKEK
# KRAS G13D, sequence (P62937 whole entry): as the sequence (P62937 whole entry) above
# Summary of the method: as §5
# AsPC-1 (K-Ras G12D) [1] = experiment: CellTiter-Glo cell viability assay, AsPC-1; format: cell-based; conditions: Homo sapiens, ASPC1, 120 h, read-out: AsPC-1 Cell Viability IC50
# Summary of the method: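 Test compounds were dispensed directly onto seeded cells, and on day 5 plates were brought to room temperature for about 30 minutes before CellTiter-Glo luminescence was read. Signals were expressed as percent of the mean DMSO control and fitted with a four-parameter logistic model.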
# KRAS G12V = KRAS G12V (Homo sapiens, UniProt P01116+P62937, G12V); experiment: Ras-Raf disruption/FRET/MOA assay, KRAS G12V; format: biochemical; conditions: disruption of BRAF RBD binding, with Cyclophilin A; read-out: KRAS G12V FRET IC50
# KRAS G12V, sequence (P01116 1-169 isoform P01116-2 G12V limits assumed): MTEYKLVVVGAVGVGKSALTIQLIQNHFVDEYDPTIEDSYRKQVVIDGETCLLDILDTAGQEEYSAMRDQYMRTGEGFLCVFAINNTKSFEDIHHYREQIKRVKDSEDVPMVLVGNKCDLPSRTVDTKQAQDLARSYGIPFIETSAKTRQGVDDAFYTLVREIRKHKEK
# KRAS G12V, sequence (P62937 whole entry): as the sequence (P62937 whole entry) above
# Summary of the method: as §5
# KRAS G13C = KRAS G13C (Homo sapiens, UniProt P01116+P62937, G13C); experiment: Ras-Raf disruption/FRET/MOA assay, KRAS G13C; format: biochemical; conditions: disruption of BRAF RBD binding, with Cyclophilin A; read-out: KRAS G13C FRET IC50
# KRAS G13C, sequence (P01116 1-169 isoform P01116-2 G13C limits assumed): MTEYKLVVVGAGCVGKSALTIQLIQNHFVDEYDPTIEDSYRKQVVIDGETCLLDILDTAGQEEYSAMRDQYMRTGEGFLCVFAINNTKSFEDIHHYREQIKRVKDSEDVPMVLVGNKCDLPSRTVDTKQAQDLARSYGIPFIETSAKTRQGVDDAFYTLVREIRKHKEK
# KRAS G13C, sequence (P62937 whole entry): as the sequence (P62937 whole entry) above
# Summary of the method: as §5
# NRAS Q61K = target: T3, NRAS Q61K (Homo sapiens, UniProt P01111+P62937, Q61K); experiment: Ras-Raf disruption/FRET/MOA assay, NRAS Q61K; format: biochemical; conditions: NRAS Q61K; read-out: NRAS Q61K FRET data IC50
# T3 construct: His6
# T3 sequence (P01111 whole entry Q61K): as the sequence (P01111 whole entry) above, with Q61K counted along it
# T3 sequence (P62937 whole entry): as the sequence (P62937 whole entry) above
# Excerpt: as §1, §2, §3, §4
# NRAS G12C = target: T4, NRAS G12C (Homo sapiens, UniProt P01111+P62937, G12C); experiment: Ras-Raf disruption/FRET/MOA assay, NRAS G12C; format: biochemical; conditions: NRAS G12C; read-out: NRAS G12C FRET data IC50
# T4 construct: His6
# T4 sequence (P01111 whole entry G12C): as the sequence (P01111 whole entry) above, with G12C counted along it
# T4 sequence (P62937 whole entry): as the sequence (P62937 whole entry) above
# Summary of the method: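 Disruption of Ras:RAF binding was read as a drop in TR-FRET ratio versus DMSO controls. The buffer was 25 mM HEPES pH 7.3, 0.002% Tween20, 0.1% BSA, 100 mM NaCl and 5 mM MgCl2. Compounds were tested as a 10-point 3-fold dilution series from 30 μM. Detection used 10 nM anti-His Eu-W1024 and 50 nM anti-GST allophycocyanin.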
# AsPC-1 (K-Ras G12D) [2] = experiment: Potency assay: pERK in AsPC-1 cells; format: cell-based; conditions: Homo sapiens, ASPC1; AsPC-1 cells, K-Ras G12D; read-out: pERK EC50 (AsPC-1 KRAS G12D)
# [3] = AsPC-1, K-Ras G12D, 5-day treatment
# KRAS Q61H, sequence (P01116 1-169 isoform P01116-2 Q61H limits assumed): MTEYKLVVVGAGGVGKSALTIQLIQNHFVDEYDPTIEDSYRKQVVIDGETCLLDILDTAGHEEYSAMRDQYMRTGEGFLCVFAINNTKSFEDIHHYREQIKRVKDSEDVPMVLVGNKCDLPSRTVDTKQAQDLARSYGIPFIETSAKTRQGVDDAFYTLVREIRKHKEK
# KRAS Q61H, sequence (P62937 whole entry, the tested form may be a part): as the sequence (P62937 whole entry) above
smiles,measurement,setting,value
CCn1c(-c2cnccc2COC)c2c3cc(ccc31)-c1cc(O)cc(c1)C[C@H](NC(=O)[C@H](C(C)C)N(C)C(=O)CN(C)C(=O)[C@@H]1CN1S(C)(=O)=O)C(=O)N1CCC[C@H](N1)C(=O)OCC(C)(C)C2 (stereo partly shown) [Compound 37],pIC50,KRAS Q61H,7.00 to 8.00
same,pIC50,KRAS WT,7.00 to 8.00
same,pIC50,KRAS G12S,7.00 to 8.00
same,pIC50,NRAS WT,7.00 to 8.00
same,pIC50,KRAS G12D,6.00 to 7.00
same,pIC50,NRAS Q61R,6.00 to 7.00
same,pIC50,KRAS G12C,7.00 to 8.00
same,pIC50,KRAS G13D,6.00 to 7.00
same,pIC50,AsPC-1 (K-Ras G12D) [1],< 5.00
same,pIC50,KRAS G12V,6.00 to 7.00
same,pIC50,KRAS G13C,7.00 to 8.00
same,pIC50,NRAS Q61K,6.00 to 7.00
same,pIC50,NRAS G12C,7.00 to 8.00
CCn1c(-c2cccnc2[C@H](C)OC)c2c3cc(ccc31)-c1cc(O)cc(c1)C[C@H](NC(=O)[C@H](C1CCCC1)N1CC[C@@]3(CCN(C(=O)[C@@H]4N[C@@H]4C4CC4)C3)C1=O)C(=O)N1CCC[C@H](N1)C(=O)OCC(C)(C)C2 [Compound 215],pIC50,KRAS Q61H,7.00 to 8.00
same,pIC50,KRAS WT,6.00 to 7.00
same,pEC50,AsPC-1 (K-Ras G12D) [2],> 5.30
same,pIC50,KRAS G12S,6.00 to 7.00
same,pIC50,NRAS WT,6.00 to 7.00
same,pIC50,KRAS G12D,6.00 to 7.00
same,pIC50,NRAS Q61R,5.00 to 6.00
same,pIC50,KRAS G12C,7.00 to 8.00
same,pIC50,KRAS G13D,6.00 to 7.00
same,pIC50,AsPC-1 (K-Ras G12D) [1]; [3],5.00 to 6.00
same,pIC50,KRAS G12V,6.00 to 7.00
same,pIC50,KRAS G13C,7.00 to 8.00
same,pIC50,NRAS Q61K,5.00 to 6.00
same,pIC50,NRAS G12C,7.00 to 8.00
CCn1c(-c2cccnc2[C@H](C)OC)c2c3cc(ccc31)-c1cc(O)cc(c1)C[C@H](NC(=O)[C@H](C(C)C)N1CO[C@@]3(CCN(C(=O)[C@H]4CN4)C3)C1=O)C(=O)N1CCC[C@H](N1)C(=O)OCC(C)(C)C2 [Compound 232],pIC50,KRAS Q61H,7.00 to 8.00
same,pIC50,KRAS WT,6.00 to 7.00
same,pEC50,AsPC-1 (K-Ras G12D) [2],> 5.30
same,pIC50,KRAS G12S,6.00 to 7.00
same,pIC50,NRAS WT,6.00 to 7.00
same,pIC50,KRAS G12D,5.00 to 6.00
same,pIC50,NRAS Q61R,6.00 to 7.00
same,pIC50,KRAS G12C,7.00 to 8.00
same,pIC50,KRAS G13D,6.00 to 7.00
same,pIC50,AsPC-1 (K-Ras G12D) [1]; [3],5.00 to 6.00
same,pIC50,KRAS G12V,6.00 to 7.00
same,pIC50,KRAS G13C,7.00 to 8.00
same,pIC50,NRAS Q61K,6.00 to 7.00
same,pIC50,NRAS G12C,7.00 to 8.00
CCn1c(-c2cccnc2[C@H](C)OC)c2c3cc(ccc31)-c1cc(cc(C(F)F)c1)C[C@H](NC(=O)[C@H](C1CCCC1)N1CC[C@]3(CCN(C(=O)[C@H]4CN4)C3)C1=O)C(=O)N1CCC[C@H](N1)C(=O)OCC(C)(C)C2 [Compound 233],pIC50,KRAS Q61H,6.00 to 7.00
same,pIC50,KRAS WT,5.00 to 6.00
same,pEC50,AsPC-1 (K-Ras G12D) [2],> 5.30
same,pIC50,KRAS G12S,5.00 to 6.00
same,pIC50,NRAS WT,5.00 to 6.00
same,pIC50,KRAS G12D,5.00 to 6.00
same,pIC50,NRAS Q61R,< 5.00
same,pIC50,KRAS G12C,6.00 to 7.00
same,pIC50,KRAS G13D,5.00 to 6.00
same,pIC50,AsPC-1 (K-Ras G12D) [1]; [3],5.00 to 6.00
same,pIC50,KRAS G12V,5.00 to 6.00
same,pIC50,KRAS G13C,6.00 to 7.00
same,pIC50,NRAS Q61K,5.00 to 6.00
same,pIC50,NRAS G12C,6.00 to 7.00
